US12329764B2, “Composition for promoting normal urinary function” (Vidya Herbs, Inc., priority 2018, dated 2025)

Key:
BPH model rats = test: Prostate growth in testosterone induced BPH rats; type: in vivo, Wistar rats
Protocol: Forty-two male Wistar rats (10 week old) were purchased from Biogen, Bangalore, India (CPCSEA Reg. No. 971/bc/06). The animals were housed in accordance with the CPCSEA (Committee for the Purpose of Control and Supervision of Experiments on Animals) guidelines. After a one-week acclimatization period the animals were housed in rooms maintained at 22±2° C. and 30-70% humidity. Water and standard pellet diet were given ad libitum. The animals were randomly divided into seven groups, each group consisting of six animals with less than 20% mean body weight range.
(§1) BPH was induced in rats using testosterone 5 mg/kg subcutaneously and a simultaneous treatment with different doses of saw palmetto preparations viz. Saw palmetto oil (SPO) and the inventive composition (200 and 400 mg/kg b.w.) or Finasteride (1 mg/kg b.w.) p.o., was followed for 21 days (Table 1). The inventive composition (VISPO) was a composition of saw palmetto oil having 3% β-sitosterol. At the end of the treatment period, blood was collected prior to the necropsy. Animals were sacrificed by overdose of anesthetics. The vital parameters such as prostate weight, prostate weight to body weight ratio, growth inhibition of prostate, serum testosterone level, expression of inflammatory and apoptotic proteins in prostate tissue were evaluated.
Following a 21-day treatment with the saw palmetto oil preparations and/or Finasteride, prostate tissues were excised, rinsed and weighed immediately after removal. The PW/BW ratio was calculated using the following equation: PW/BW ratio=(Prostate weight of each animal from experimental group/Body weight of each animal from experimental group)×1000. The percentage of growth inhibition was calculated as follows: 100−[(treated group−control group)/(BPH group−control group)]×100.

[1] = tested on: hyperplastic patterns in prostate tissue of BPH rats; test: Histology (H&E) of prostate tissue of BPH rats; type: in vivo, Wistar rats; settings: finasteride group 1 mg/kg
Protocol: as §1
The prostate tissue samples were fixed in 4% formalin, dehydrated with a graded alcohol series, embedded in paraffin, and then cut into 4 μm thickness. The sections were stained with hematoxylin and eosin (H&E, Sigma-Aldrich, St. Louis, MO, USA). The images were captured using a microscope (Leica, Germany).

Question: `CC(C)(C)NC(=O)[C@H]1CC[C@H]2[C@@H]3CC[C@H]4NC(=O)C=C[C@]4(C)[C@H]3CC[C@]12C` [Finasteride] was tested. Which Prostate weight (BPH model rats; 1 mg/kg p.o., 21 days, testosterone 5 mg/kg s.c., mean ± SEM (n = 6)) did it give?
Answer: 0.27 ± 0.01 g

Question: What about the Inhibition of growth (BPH model rats; 1 mg/kg p.o., 21 days, prostate growth vs BPH and control groups) of the same compound?
Answer: 93.18%

Question: And the “Reduction in prostate weight” value (BPH model rats; Finasteride treatment 1 mg/kg, vs BPH group)?
Answer: 2.51 fold

Question: And the “Prostate weights, in words” value (BPH model rats; vs BPH group, p<0.001)?
Answer: reduced considerably

Question: What about the “Histological examination of prostate tissue” value [1] of the same compound?
Answer: near normal prostatic glands with mild focal inflammation
